According to ChEMBL document CHEMBL2073788, “Troglitazone-induced intrahepatic cholestasis by an interference with the hepatobiliary export of bile acids in male and female rats. Correlation with the gender difference in troglitazone sulfate formation and the inhibition of the canalicular bile salt export pump (Bsep) by troglitazone and …” (Toxicology, 2001):
Counter-ions that a name gives are not always drawn.

Assays:
Bile salt export pump [1] = biological target: T1, Bile salt export pump (Rattus norvegicus, UniProt O70127); experiment: TP_TRANSPORTER: inhibition of Taurocholate uptake (Taurocholate: 1 uM) in liver canalicular membrane vesicle from female rat; type: functional, cell membranes
T1 sequence (O70127 whole entry): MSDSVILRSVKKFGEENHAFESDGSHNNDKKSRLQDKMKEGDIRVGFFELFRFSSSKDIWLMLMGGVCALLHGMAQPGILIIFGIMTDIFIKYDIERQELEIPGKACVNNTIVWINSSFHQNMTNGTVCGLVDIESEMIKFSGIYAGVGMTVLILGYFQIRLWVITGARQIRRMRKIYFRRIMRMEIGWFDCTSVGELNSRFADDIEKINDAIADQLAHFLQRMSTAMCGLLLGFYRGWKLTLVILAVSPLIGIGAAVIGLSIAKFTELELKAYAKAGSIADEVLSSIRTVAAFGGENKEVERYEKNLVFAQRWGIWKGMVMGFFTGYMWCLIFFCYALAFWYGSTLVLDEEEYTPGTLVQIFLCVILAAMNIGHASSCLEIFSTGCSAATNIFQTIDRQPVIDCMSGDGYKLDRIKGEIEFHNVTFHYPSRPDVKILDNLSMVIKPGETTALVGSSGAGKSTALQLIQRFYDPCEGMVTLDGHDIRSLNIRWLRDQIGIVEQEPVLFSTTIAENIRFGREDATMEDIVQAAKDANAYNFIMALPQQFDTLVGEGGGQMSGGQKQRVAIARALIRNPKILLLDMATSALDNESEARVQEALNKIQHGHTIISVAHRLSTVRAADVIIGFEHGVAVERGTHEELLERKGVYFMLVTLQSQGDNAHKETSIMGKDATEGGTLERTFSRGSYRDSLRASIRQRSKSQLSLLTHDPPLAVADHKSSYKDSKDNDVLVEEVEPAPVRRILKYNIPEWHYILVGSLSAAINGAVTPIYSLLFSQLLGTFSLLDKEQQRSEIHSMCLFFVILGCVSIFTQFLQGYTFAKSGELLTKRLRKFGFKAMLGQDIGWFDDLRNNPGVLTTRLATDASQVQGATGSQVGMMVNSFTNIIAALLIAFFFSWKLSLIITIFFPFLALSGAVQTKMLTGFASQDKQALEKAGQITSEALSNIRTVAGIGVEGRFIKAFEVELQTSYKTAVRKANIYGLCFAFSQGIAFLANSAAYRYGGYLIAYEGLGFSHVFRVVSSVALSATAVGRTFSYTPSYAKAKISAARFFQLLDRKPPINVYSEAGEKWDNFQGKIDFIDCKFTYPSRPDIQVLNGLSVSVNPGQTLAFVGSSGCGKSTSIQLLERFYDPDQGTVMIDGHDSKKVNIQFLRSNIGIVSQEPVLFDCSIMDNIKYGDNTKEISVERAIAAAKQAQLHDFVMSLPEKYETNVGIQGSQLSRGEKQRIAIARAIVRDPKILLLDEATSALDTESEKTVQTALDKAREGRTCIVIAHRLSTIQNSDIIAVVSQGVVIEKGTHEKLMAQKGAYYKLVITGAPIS

Bile salt export pump [2] = biological target: T1, Bile salt export pump; experiment: TP_TRANSPORTER: inhibition of Taurocholate uptake (Taurocholate: 1 uM) in liver canalicular membrane vesicle from male rat; type: functional, cell membranes

SMILES | IC50 (Bile salt export pump [1]) [µM] | IC50 (Bile salt export pump [2]) [µM]
COc1ccc(Cl)cc1C(=O)NCCc1ccc(S(=O)(=O)NC(=O)NC2CCCCC2)cc1 [GLYBURIDE] | 15.7 | 8.6
Cc1c(C)c2c(c(C)c1OS(=O)(=O)O)CCC(C)(COc1ccc(CC3SC(=O)NC3=O)cc1)O2 (stereo not given) [TROGLITAZONE SULFATE] | 0.6 | 0.4
Cc1c(C)c2c(c(C)c1O)CCC(C)(COc1ccc(CC3SC(=O)NC3=O)cc1)O2 (stereo not given) [TROGLITAZONE] | 3.9 | 
